The supplement of paper PMC8671470
± gives the standard deviation of the averaged measurements.

tested on: HL-60; assay: cell viability (% survival relative to DMSO control); higher = less cytotoxic; conditions: 0.1 µM; 72 h; co-treatment: AZD3965 100 nM
Outline: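 HL-60 cells grown in RPMI 1640 with 10% FBS were rescreened against the full library in 384-well plates, in duplicate, at five tenfold concentrations from 1 to 10,000 nM, alongside DMSO or 100 nM of one of three metabolic inhibitors for 72 h at 37 °C, 5% CO2. Reference wells contained DMSO or 10 μM proteasome inhibitor. Viability was read with CellTiter-Glo and normalised to these reference wells, and where reported, area under the curve was taken from four-parameter log-logistic fits in drc and PharmacoGx.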

SMILES	cell viability [%]
Cc1cccc(Nc2cc(Cl)nc(SCC(=O)O)n2)c1C [Pirinixic acid]	96.2 ± 2.9
C[C@]12C=CC(=O)C=C1CC[C@@H]1[C@@H]2[C@@H](O)C[C@@]2(C)[C@H]1CC[C@]2(O)C(=O)CO [Prednisolone]	103 ± 2.2
C=CCN(C)CCCCCCOc1ccc(C(=O)c2ccc(Br)cc2)c(F)c1.O=C(O)/C=C/C(=O)O [Ro 48-8071 fumarate]	103 ± 2.1

same assay, conditions: 0.1 µM; 72 h; co-treatment: DMSO vehicle

SMILES	cell viability [%]
CN(Cc1cnc2nc(N)nc(N)c2n1)c1ccc(C(=O)N[C@@H](CCC(=O)O)C(=O)O)cc1 [Methotrexate]	42.4 ± 1.4
COC(=O)c1cc2c(C(F)(F)F)cc(-c3ccccc3)cc2n1O [NHI-2]	104 ± 1.4
CCCCCCCC/C=C\CCCCCCCC(=O)Nc1ccccc1 [Octadec-9-Enoic Acid Phenylamide]	103 ± 5.8
CC[C@H](C)[C@H](N)C(=O)N1CCSC1 [P32/98]	99.5 ± 1.5
CC(=O)Nc1nc(C)c(-c2ccc(Cl)c(S(=O)(=O)NCCO)c2)s1 [PIK93]	99.6 ± 1.7
OC[C@H]1O[C@@H](n2cnc3c2N=CNC[C@H]3O)C[C@@H]1O [Pentostatin]	94.9 ± 6.3
CC(C)CC(=O)N[C@H](C(=O)N[C@H](C(=O)N[C@@H](CC(C)C)[C@@H](O)CC(=O)N[C@@H](C)C(=O)N[C@@H](CC(C)C)[C@@H](O)CC(=O)O)C(C)C)C(C)C [Pepstatin A]	98.4 ± 2
Cc1cccc(Nc2cc(Cl)nc(SCC(=O)O)n2)c1C [Pirinixic acid]	96.3 ± 2.2
C[C@]12C=CC(=O)C=C1CC[C@@H]1[C@@H]2[C@@H](O)C[C@@]2(C)[C@H]1CC[C@]2(O)C(=O)CO [Prednisolone]	100 ± 2
C=CCN(C)CCCCCCOc1ccc(C(=O)c2ccc(Br)cc2)c(F)c1.O=C(O)/C=C/C(=O)O [Ro 48-8071 fumarate]	107 ± 8.2

same assay, conditions: 0.1 µM; 72 h; co-treatment: GSK2194069 100 nM

SMILES	cell viability [%]
CN(Cc1cnc2nc(N)nc(N)c2n1)c1ccc(C(=O)N[C@@H](CCC(=O)O)C(=O)O)cc1 [Methotrexate]	39 ± 4
COC(=O)c1cc2c(C(F)(F)F)cc(-c3ccccc3)cc2n1O [NHI-2]	100 ± 3.5
CCCCCCCC/C=C\CCCCCCCC(=O)Nc1ccccc1 [Octadec-9-Enoic Acid Phenylamide]	103 ± 4.3
CC[C@H](C)[C@H](N)C(=O)N1CCSC1 [P32/98]	98.8 ± 3.1
CC(=O)Nc1nc(C)c(-c2ccc(Cl)c(S(=O)(=O)NCCO)c2)s1 [PIK93]	103 ± 1.6
OC[C@H]1O[C@@H](n2cnc3c2N=CNC[C@H]3O)C[C@@H]1O [Pentostatin]	98.8 ± 2.3
CC(C)CC(=O)N[C@H](C(=O)N[C@H](C(=O)N[C@@H](CC(C)C)[C@@H](O)CC(=O)N[C@@H](C)C(=O)N[C@@H](CC(C)C)[C@@H](O)CC(=O)O)C(C)C)C(C)C [Pepstatin A]	103 ± 7.9
Cc1cccc(Nc2cc(Cl)nc(SCC(=O)O)n2)c1C [Pirinixic acid]	94.6 ± 6.5
C[C@]12C=CC(=O)C=C1CC[C@@H]1[C@@H]2[C@@H](O)C[C@@]2(C)[C@H]1CC[C@]2(O)C(=O)CO [Prednisolone]	98.4 ± 2.9
C=CCN(C)CCCCCCOc1ccc(C(=O)c2ccc(Br)cc2)c(F)c1.O=C(O)/C=C/C(=O)O [Ro 48-8071 fumarate]	101 ± 1.7

same assay, conditions: 0.1 µM; 72 h; co-treatment: pictilisib 100 nM

SMILES	cell viability [%]
CN(Cc1cnc2nc(N)nc(N)c2n1)c1ccc(C(=O)N[C@@H](CCC(=O)O)C(=O)O)cc1 [Methotrexate]	32.358 ± 0.03
COC(=O)c1cc2c(C(F)(F)F)cc(-c3ccccc3)cc2n1O [NHI-2]	103 ± 3.6
CCCCCCCC/C=C\CCCCCCCC(=O)Nc1ccccc1 [Octadec-9-Enoic Acid Phenylamide]	106 ± 1.2
CC[C@H](C)[C@H](N)C(=O)N1CCSC1 [P32/98]	96.3 ± 2
CC(=O)Nc1nc(C)c(-c2ccc(Cl)c(S(=O)(=O)NCCO)c2)s1 [PIK93]	97 ± 8.8
OC[C@H]1O[C@@H](n2cnc3c2N=CNC[C@H]3O)C[C@@H]1O [Pentostatin]	91.2 ± 1.8
